Data published in patent US5104866A, “Water-soluble antibiotic composition and water-soluble salts of cephem compounds” (Fujisawa Pharmaceutical Company, Ltd., priority 1987, dated 1992).
Counter-ions that a name gives are not always drawn.

What was measured:
[1] = Dissolution test: velocity of dissolution of test samples after addition of distilled water at ambient temperature; format: physicochemical; settings: reference sample without carbonic acid salt
Description: As a comparison, the following reference samples were also tested.
The velosity of dissolution of the test samples were observed after addition of distilled water into said test samples at ambient temperature,respectively.

P. aeruginosa 26 = experiment: In vitro antibacterial activity, two-fold agar-plate dilution method (MIC); format: cell-based; settings: Pseudomonas aeruginosa, HI-agar, 10^6 viable cells per ml, 37° C., 20 hours, read-out: minimal inhibitory concentration (MIC)
Description: Sodium 7-[2-allyloxyimino-2-(5-carboxylatoamino-1,2,4-thiadiazol-3-yl)acetamido]- 3-(1-pyridinio)methyl-3-cephem-4-carboxylate (syn isomer).
In vitro antibacterial activity was determined by the two-fold agar-plate dilution method as described below.

| Compound | Maximum concentration of this sample dissolved in water [1] | MIC (P. aeruginosa 26) [µg/mL] |
| --- | --- | --- |
| C=CCO/N=C(\C(=O)NC1C(=O)N2C(C(=O)[O-])=C(C[n+]3ccccc3)CSC12)c1nsc(N)n1 (stereo not drawn) [Reference Sample (1), 7-[2-allyloxyimino-2-(5-amino-1,2,4-thiadiazol-3-yl)acetamido]-3-(1-pyridinio)methyl-3-cephem-4-carboxylate (syn isomer)] | 4.07 % (w/v) |  |
| C=CCO/N=C(\C(=O)NC1C(=O)N2C(C(=O)[O-])=C(C[n+]3ccccc3)CSC12)c1nsc(N)n1 (stereo not drawn) [Reference Sample (2), 7-[2-allyloxyimino-2-(5-amino-1,2,4-thiadiazol-3-yl)acetamido]-3-(1-pyridinio)methyl-3-cephem-4-carboxylate hydrochloride (syn isomer)] | 8.28 % (w/v) |  |

Other lines, results leading:

| Maximum concentration of this sample dissolved in water [1] | MIC (P. aeruginosa 26) [µg/mL] | Compound |
| --- | --- | --- |
| 2 % (w/v) |  | CO/N=C(\C(=O)NC1C(=O)N2C(C(=O)[O-])=C(C[n+]3ccccc3)CSC12)c1nsc(N)n1 (stereo not drawn) [Reference Sample (3), 7-[2-(5-amino-1,2,4-thiadiazol-3-yl)-2-methoxyiminoacetamido]-3-(1-pyridinio)methyl-3-cephem-4-carboxylate (syn isomer)] |
| 10 % (w/v) |  | CO/N=C(\C(=O)NC1C(=O)N2C(C(=O)[O-])=C(C[n+]3ccccc3)CSC12)c1nsc(N)n1 (stereo not drawn) [Reference Sample (4), 7-[2-(5-amino-1,2,4-thiadiazol-3-yl)-2-methoxyiminoacetamido]-3-(1-pyridinio)methyl-3-cephem-4-carboxylate sulfate (syn isomer)] |
|  | 0.39 | C=CCO/N=C(\C(=O)NC1C(=O)N2C(C(=O)[O-])=C(C[n+]3ccccc3)CSC12)c1nsc(NC(=O)O)n1 (stereo not drawn) [Test salt, Sodium 7-[2-allyloxyimino-2-(5-carboxylatoamino-1,2,4-thiadiazol-3-yl)acetamido]-3-(1-pyridinio)methyl-3-cephem-4-carboxylate (syn isomer)] |
